In ChEMBL document CHEMBL1136454, “Synthesis and biological activity of N-Acylated ornithine analogues of daptomycin” (Bioorg Med Chem Lett, 2003):
Converted amounts (≈) assume the structure as drawn.

What was measured:
Staphylococcus aureus [1] = test: Antibacterial activity against methicillin resistant Staphylococcus aureus ATCC 43300 (MRSA); assay type: functional
Mus musculus = test: Antibacterial activity was determined by protection from death of mice infected by methicillin resistant Staphylococcus aureus (MRSA) upon sc administration of compound after 4 hr of post infection; assay type: functional; conditions: read-out: PD50
Enterococcus faecalis = test: Antibacterial activity against Enterococcus faecalis ATCC 49452; assay type: functional
Enterococcus faecium = test: Antibacterial activity against Enterococcus faecium ATCC 6569; assay type: functional
Staphylococcus aureus [2] = test: Antibacterial activity against methicillin susceptible Staphylococcus aureus ATCC 29213 (MSSA ); assay type: functional
[3] = In vivo volume distribution (Vd) was determined in murine septicemia at dose of 100 mg/kg; assay type: ADME, organism-based; parameters: dose 100 mg/kg; conditions: mouse
[4] = In vivo Tmax was determined in murine septicemia at dose of 100 mg/kg; assay type: ADME, organism-based; parameters: dose 100 mg/kg; conditions: mouse
[5] = In vivo total clearance was determined in murine septicemia at dose of 100 mg/kg; assay type: ADME, organism-based; parameters: dose 100 mg/kg; conditions: mouse, read-out: CLtotal (converted)
[6] = In vivo Cmax in mice at dose of 100 mg/kg; assay type: ADME, organism-based; parameters: dose 100 mg/kg; conditions: mouse
[7] = In vivo area under curve (AUC) was determined in murine septicemia at dose of 100 mg/kg; assay type: ADME, organism-based; parameters: dose 100 mg/kg; conditions: mouse
[8] = In vivo half life period was determined in murine septicemia at dose of 50 mg/kg; assay type: ADME, organism-based; parameters: dose 50 mg/kg; conditions: mouse
[9] = In vivo volume distribution (Vd) was determined in murine septicemia at dose of 50 mg/kg; assay type: ADME, organism-based; parameters: dose 50 mg/kg; conditions: mouse
[10] = In vivo area under curve (AUC) was determined in murine septicemia at dose of 50 mg/kg; assay type: ADME, organism-based; parameters: dose 50 mg/kg; conditions: mouse
[11] = In vivo Tmax was determined in murine septicemia at dose of 50 mg/kg; assay type: ADME, organism-based; parameters: dose 50 mg/kg; conditions: mouse
[12] = In vivo total clearance was determined in murine septicemia at dose of 50 mg/kg; assay type: ADME, organism-based; parameters: dose 50 mg/kg; conditions: mouse, read-out: CLtotal (converted)
[13] = In vivo Cmax in mice at dose of 50 mg/kg; assay type: ADME, organism-based; parameters: dose 50 mg/kg; conditions: mouse

SMILES	MIC (Staphylococcus aureus [1]) [µg/mL]	ED50 (Mus musculus) [mg/kg]	MIC (Enterococcus faecalis) [µg/mL]	MIC (Enterococcus faecium) [µg/mL]	MIC (Staphylococcus aureus [2]) [µg/mL]	Vd [3] [L/kg]	Tmax [4] [h]	clearance [5] [mL/min/kg]	Cmax [6] [µg/mL]	AUC [7] [µg·h/mL]	half-life [8] [h]	Vd [9] [L/kg]	AUC [10] [µg·h/mL]	Tmax [11] [h]	clearance [12] [mL/min/kg]	Cmax [13] [µg/mL]
CCCCCCCCCC(=O)N[C@@H](Cc1c[nH]c2ccccc12)C(=O)N[C@H](CC(N)=O)C(=O)N[C@@H](CC(=O)O)C(=O)N[C@@H]1C(=O)NCC(=O)N[C@@H](CCCNC(=N)N)C(=O)N[C@@H](CC(=O)O)C(=O)N[C@H](C)C(=O)N[C@@H](CC(=O)O)C(=O)NCC(=O)N[C@H](CO)C(=O)N[C@@H]([C@H](C)CC(=O)O)C(=O)N[C@@H](CC(=O)c2ccccc2N)C(=O)O[C@@H]1C [listing 1 of 2 here]	0.78 (≈ 0.469 µM)	0.17	12.5 (≈ 7.52 µM)	6.25 (≈ 3.76 µM)	0.78 (≈ 0.469 µM)											
CCCCCCCCCC(=O)N[C@@H](Cc1c[nH]c2ccccc12)C(=O)N[C@H](CC(N)=O)C(=O)N[C@@H](CC(=O)O)C(=O)N[C@@H]1C(=O)NCC(=O)N[C@@H](CCCNC(=O)c2ccccc2N)C(=O)N[C@@H](CC(=O)O)C(=O)N[C@H](C)C(=O)N[C@@H](CC(=O)O)C(=O)NCC(=O)N[C@H](CO)C(=O)N[C@@H]([C@H](C)CC(=O)O)C(=O)N[C@@H](CC(=O)c2ccccc2N)C(=O)O[C@@H]1C [listing 1 of 2 here]						0.23	0.5	1.1	464	1500	2.4					
CCCCCCCCCC(=O)N[C@@H](Cc1c[nH]c2ccccc12)C(=O)N[C@H](CC(N)=O)C(=O)N[C@@H](CC(=O)O)C(=O)N[C@@H]1C(=O)NCC(=O)N[C@@H](CCCNC(=O)C(N)CCc2c[nH]c3ccccc23)C(=O)N[C@@H](CC(=O)O)C(=O)N[C@H](C)C(=O)N[C@@H](CC(=O)O)C(=O)NCC(=O)N[C@H](CO)C(=O)N[C@@H]([C@H](C)CC(=O)O)C(=O)N[C@@H](CC(=O)c2ccccc2N)C(=O)O[C@@H]1C (some centres undefined)											2.8	0.216	936	1	0.883	258
CCCCCCCCCC(=O)N[C@@H](Cc1c[nH]c2ccccc12)C(=O)N[C@H](CC(N)=O)C(=O)N[C@@H](CC(=O)O)C(=O)N[C@@H]1C(=O)NCC(=O)N[C@@H](CCCNC(=O)c2c(N)ccc3ccccc23)C(=O)N[C@@H](CC(=O)O)C(=O)N[C@H](C)C(=O)N[C@@H](CC(=O)O)C(=O)NCC(=O)N[C@H](CO)C(=O)N[C@@H]([C@H](C)CC(=O)O)C(=O)N[C@@H](CC(=O)c2ccccc2N)C(=O)O[C@@H]1C [listing 1 of 2 here]											5.6	0.143	2820	4	0.3	230
CCCCCCCCCC(=O)N[C@@H](Cc1c[nH]c2ccccc12)C(=O)N[C@H](CC(N)=O)C(=O)N[C@@H](CC(=O)O)C(=O)N[C@@H]1C(=O)NCC(=O)N[C@@H](CCCNC(=O)C2Cc3c([nH]c4ccccc34)CN2)C(=O)N[C@@H](CC(=O)O)C(=O)N[C@H](C)C(=O)N[C@@H](CC(=O)O)C(=O)NCC(=O)N[C@H](CO)C(=O)N[C@@H]([C@H](C)CC(=O)O)C(=O)N[C@@H](CC(=O)c2ccccc2N)C(=O)O[C@@H]1C (some centres undefined)											> 6			6		418
CCCCCCCCCC(=O)N[C@@H](Cc1c[nH]c2ccccc12)C(=O)N[C@H](CC(N)=O)C(=O)N[C@@H](CC(=O)O)C(=O)N[C@@H]1C(=O)NCC(=O)N[C@@H](CCCNC(=O)c2c(N)ccc3ccccc23)C(=O)N[C@@H](CC(=O)O)C(=O)N[C@H](C)C(=O)N[C@@H](CC(=O)O)C(=O)NCC(=O)N[C@H](CO)C(=O)N[C@@H]([C@H](C)CC(=O)O)C(=O)N[C@@H](CC(=O)c2ccccc2N)C(=O)O[C@@H]1C [listing 2 of 2 here]	0.78 (≈ 0.436 µM)	2.1	6.25 (≈ 3.49 µM)	6.25 (≈ 3.49 µM)	0.78 (≈ 0.436 µM)											
CCCCCCCCCC(=O)N[C@@H](Cc1c[nH]c2ccccc12)C(=O)N[C@H](CC(N)=O)C(=O)N[C@@H](CC(=O)O)C(=O)N[C@@H]1C(=O)NCC(=O)N[C@@H](CCCNC(=O)c2ccccc2N)C(=O)N[C@@H](CC(=O)O)C(=O)N[C@H](C)C(=O)N[C@@H](CC(=O)O)C(=O)NCC(=O)N[C@H](CO)C(=O)N[C@@H]([C@H](C)CC(=O)O)C(=O)N[C@@H](CC(=O)c2ccccc2N)C(=O)O[C@@H]1C [listing 2 of 2 here]	1.56 (≈ 0.897 µM)	1.1	12.5 (≈ 7.18 µM)	6.25 (≈ 3.59 µM)	0.78 (≈ 0.448 µM)											
CCCCCCCCCC(=O)N[C@@H](Cc1c[nH]c2ccccc12)C(=O)N[C@H](CC(N)=O)C(=O)N[C@@H](CC(=O)O)C(=O)N[C@@H]1C(=O)NCC(=O)N[C@@H](CCCN)C(=O)N[C@@H](CC(=O)O)C(=O)N[C@H](C)C(=O)N[C@@H](CC(=O)O)C(=O)NCC(=O)N[C@H](CO)C(=O)N[C@@H]([C@H](C)CC(=O)O)C(=O)N[C@@H](CC(=O)c2ccccc2N)C(=O)O[C@@H]1C	0.39 (≈ 0.241 µM)	0.22	1.56 (≈ 0.963 µM)	1.56 (≈ 0.963 µM)	0.78 (≈ 0.481 µM)						1.7	0.251	489	0.5	1.7	214
CCCCCCCCCC(=O)N[C@@H](Cc1c[nH]c2ccccc12)C(=O)N[C@H](CC(N)=O)C(=O)N[C@@H](CC(=O)O)C(=O)N[C@@H]1C(=O)NCC(=O)N[C@@H](CCCNC(=O)[C@@H](N)CCCCN)C(=O)N[C@@H](CC(=O)O)C(=O)N[C@H](C)C(=O)N[C@@H](CC(=O)O)C(=O)NCC(=O)N[C@H](CO)C(=O)N[C@@H]([C@H](C)CC(=O)O)C(=O)N[C@@H](CC(=O)c2ccccc2N)C(=O)O[C@@H]1C											1.2	0.147	589	0.5	1.42	297
CCCCCCCCCC(=O)N[C@@H](Cc1c[nH]c2ccccc12)C(=O)N[C@H](CC(N)=O)C(=O)N[C@@H](CC(=O)O)C(=O)N[C@@H]1C(=O)NCC(=O)N[C@@H](CCCNC(=N)N)C(=O)N[C@@H](CC(=O)O)C(=O)N[C@H](C)C(=O)N[C@@H](CC(=O)O)C(=O)NCC(=O)N[C@H](CO)C(=O)N[C@@H]([C@H](C)CC(=O)O)C(=O)N[C@@H](CC(=O)c2ccccc2N)C(=O)O[C@@H]1C [listing 2 of 2 here]											2.1	0.198	766	0.5	1.08	254
